Measured values published in patent US9162979B2, “1,5-Diary1-2-alkylpyrrole-3-substituted nitro esters, selective COX-2 inhibitors and nitric oxide donors” (ROTTAPHARM BIOTECH S.R.L., priority 2010, dated 2015).

Legend:
[1] = test system: isolated rings of thoracic aorta; assay: Evaluation of release of NO: vasorelaxing activity on endothelium-denuded aortic rings contracted with KCl; set-up: species or system rat; key to NO release properties Emax (maximum vasorelaxing effect) / NO release properties pIC50 (vasorelaxing potency): S.E: Scarcely Effective: it is not possible to detect NO release comparable to the other compounds mentioned here; settings: for IC50 / Emax: Rattus norvegicus; for IC50: concentration reducing contractile tone induced by 20 mM KCl by half, read-out: NO release properties pIC50 (vasorelaxing potency) (converted); for Emax / NO release properties Emax (maximum vasorelaxing effect): relative to contractile tone induced by 20 mM KCl, 1 nM-10 μM; for Emax: read-out: NO release properties Emax (maximum vasorelaxing effect)
How it was run: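 Endothelium-denuded male Wistar rat thoracic aorta rings (2 g preload, Tyrode, 37 °C, 95% O2/5% CO2) precontracted with 20 mM KCl, then given cumulative test compound (1 nM–10 μM). Relaxation as % of KCl tone; Emax and pIC50 reported as mean±SE of 5–10 experiments. Also repeated with 1 μM ODQ.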

rat liver homogenate [2] = settings: 1 mM
Description: (§3) By evaluating the time-dependent increase in nitrite concentrations in the liver homogenate, it was possible to extrapolate two descriptive parameters:
(§4) Time (in minutes) required for an amount of nitrite to be released by the test compound equal to half its maximum release.

rat liver homogenate [3] = assay: Evaluation of release of nitrites in hepatic homogenate; settings: for Maximum release (%): nitrite after 4 hours, 1 mM, 37° C., as percentage of SNP
Description: as §3, §4

COX-2 = COX-2 (Mus musculus (Mouse), UniProt Q05769); assay: Evaluation of COX-2 activity: PGE2 production in LPS-stimulated J774 cells; assay type: cell-based, murine; settings: J774 cells stimulated 24 hours with LPS 10 μg/mL; PGE2 by radio-immunological assay; read-out: Cyclooxygenase inhibition COX-2 IC50
How it was run: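 Murine J774 macrophages switched to serum-free medium before stimulation; PGE2 in supernatants measured by radioimmunoassay, triplicate wells per condition. IC50 with 95% intervals from sigmoidal variable-slope dose-response fit.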

[4] = test system: mouse abdominal contraction (writhing) induced by acetic acid; assay: Abdominal constriction test induced by acetic acid; assay type: in vivo
Description: (§1) Male Swiss albino mice (23-25 g) and Wistar rats (150-200 g) were used.
The antinociceptive activity was determined by the mouse abdominal contraction test using acetic acid (0.6%), which induces writhing, according to Koster's method (Fed. Proc., 1959, 18, 412-418). The number of stretching movements was counted for 10 minutes, starting 5 minutes after injection of acetic acid. The results relating to analgesic activity in the abdominal constriction test with representative compounds of the invention are shown in Table 10.
The test was carried out using 10 animals in the treated group and 20 in the control group (CMC); all the compounds were administered per os with the exception of the compound of Example 8, which was administered i.p.

[5] = test system: carrageenan-induced inflammatory state in the rat; assay: Carrageenan test: nociceptive threshold (weight supported); assay type: in vivo; settings: for Weight supported (g) Before treatment: baseline before treatment
Description: as §1
The nociceptive threshold in the rat was determined with an analgesiometer, as described by Leighton et al. (Br. J. Pharmacol., 1988, 93, 553-560), the pressure was measured before the treatment and after 30 and 60 min. To reproduce the inflammatory state in the rat, carrageenan was administered i.p. (0.1 ml, 1%) 4 h before the test.
(§2) The test was performed using 6 animals per group, all the compounds were administered per os, 30 min before the test. The carrageenan is administered 2 h before the test.

[6] = test system: rat paw oedema induced by carrageenan; assay: Volume of oedema test (carrageenan); assay type: in vivo
Description: The rat paw volumes were measured using a pletismometer. Four hours after injecting carrageenan 1.0% (0.1 ml injection), the volume of the right hind-paw was measured and compared with that of controls treated with a saline/carrageenan solution. The rats were administered the test compounds 3.5 hours after the carrageenan. The results are given as paw volume expressed in ml. The results relating to the analgesic and anti-oedemic activity in the carrageenan test for some representative compounds of the invention are shown in Table 11.
as §2

[7] = test system: MIA-induced osteoarthritis; assay: Chronic pain from MIA-induced osteoarthritis; assay type: in vivo, rat; settings: 20 mg/kg per os twice daily for 14 days; for Weight supported (g) Before treatment: baseline before treatment
Description: The compounds are administered per os at a dose of 20 mg/kg twice daily for 14 days. Monosodium iodoacetate (MIA), 2 mg in 25 μL is injected in the left knee of anaesthetized rats, the test is carried out according to the literature. Each experiment represents the mean value for 5 animals.

[8] = test system: carrageenan-induced inflammatory state in the rat; assay: Carrageenan test: nociceptive threshold (weight supported); assay type: in vivo; settings: 20 mg/kg per os

COX-2, sequence (Q05769 18-604): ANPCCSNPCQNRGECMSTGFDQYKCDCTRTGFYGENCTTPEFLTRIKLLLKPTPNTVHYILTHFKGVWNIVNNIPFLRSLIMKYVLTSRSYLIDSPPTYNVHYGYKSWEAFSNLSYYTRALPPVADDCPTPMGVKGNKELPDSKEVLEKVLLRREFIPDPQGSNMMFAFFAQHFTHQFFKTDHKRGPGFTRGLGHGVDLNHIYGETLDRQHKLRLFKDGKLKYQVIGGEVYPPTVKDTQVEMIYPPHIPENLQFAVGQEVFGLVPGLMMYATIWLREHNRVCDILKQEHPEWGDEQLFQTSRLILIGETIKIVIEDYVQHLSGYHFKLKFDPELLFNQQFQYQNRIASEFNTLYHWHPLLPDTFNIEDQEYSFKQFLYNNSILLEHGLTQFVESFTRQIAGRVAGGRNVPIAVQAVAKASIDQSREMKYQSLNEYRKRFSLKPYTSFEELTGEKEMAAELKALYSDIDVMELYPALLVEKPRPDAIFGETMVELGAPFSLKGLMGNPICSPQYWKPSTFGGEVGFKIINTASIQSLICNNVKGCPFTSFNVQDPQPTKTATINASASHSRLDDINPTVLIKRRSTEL

With Cc1c(CC(=O)OCCO[N+](=O)[O-])cc(-c2ccc(S(C)(=O)=O)cc2)n1-c1ccc(F)cc1 [Example 2, 2-(Nitrooxy)ethyl-2-[(1-(4-fluorophenyl)-2-methyl-5-(4-(methylsulphonyl)phenyl)-1H-pyrrol-3-yl)]acetate] the IC50 [1] was 3.47 µM, the Emax [1] was 58 ± 5% and the “T ½” value (rat liver homogenate [2]) was 1.14 ± 0.208 h. The “Maximum release (%)” value (rat liver homogenate [3]) was 26 ± 7%.

In the case of Cc1c(CC(=O)OCCO[N+](=O)[O-])cc(-c2ccc(S(C)(=O)=O)cc2)n1-c1cccc(F)c1 [Example 3, 2-(Nitrooxy)ethyl-2-[(1-(3-fluorophenyl)-2-methyl-5-(4-methylsulphonylphenyl)-1H-pyrrol-3-yl)]acetate], the IC50 (COX-2) is reported as 0.019 µM, the IC50 [1] is reported as 0.331 µM and the Emax [1] is reported as 69 ± 4%. For the same molecule, the N writhes ([4]; 20 mg/kg per os) was 17.1 ± 2.3, the N writhes ([4]; 40 mg/kg per os) was 9.4 ± 2.5 and the “Weight supported (g) After treatment 30 min” value ([5]; 40 mg/kg per os) was 54.1 ± 3.7 g. For the same molecule, the “Weight supported (g) After treatment 60 min” value ([5]; 40 mg/kg per os) was 38.7 ± 3.1 g, the “Weight supported (g) Before treatment” value ([5]; 40 mg/kg per os) was 32.6 ± 2.7 g and the “Oedema Volume” value ([6]; 40 mg/kg per os) was 2.17 ± 0.08 mL.

Cc1c(CCOCCO[N+](=O)[O-])cc(-c2ccc(S(C)(=O)=O)cc2)n1-c1ccc(F)cc1 [Example 37, 2-[2-[2-(1-(4-Fluorophenyl)-2-methyl-5-(4-methylsulphonylphenyl)-1H-pyrrol-3-yl]ethoxy]ethyl Nitrate] gave an IC50 (COX-2) of 0.014 µM, an Emax [1] of 49 ± 3% and a N writhes ([4]; 10 mg/kg per os) of 19.1 ± 2.7. For the same molecule, the N writhes ([4]; 20 mg/kg per os) was 15.2 ± 3.3, the “Weight supported (g) After treatment 30 min” value ([5]; 10 mg/kg per os) was 55.1 ± 4.7 g and the “Weight supported (g) After treatment 60 min” value ([5]; 10 mg/kg per os) was 52.6 ± 4.0 g. The “Weight supported (g) Before treatment” value ([5]; 10 mg/kg per os) was 34.7 ± 2.7 g, the “Oedema Volume” value ([6]; 10 mg/kg per os) was 1.87 ± 0.07 mL and the “Weight supported (g) After treatment 30 min” value [7] was 45.1 ± 3.7 g. The “Weight supported (g) After treatment 4 h” value [7] was 39.1 ± 3.5 g, the “Weight supported (g) After treatment 24 h” value [7] was 33.8 ± 3.7 g and the “Weight supported (g) Before treatment” value [7] was 34.6 ± 3.1 g. For the same molecule, the “T ½” value (rat liver homogenate [2]) was 0.713 ± 0.115 h and the “Maximum release (%)” value (rat liver homogenate [3]) was 25 ± 3%.

With Cc1c(CCOCCO)cc(-c2ccc(S(C)(=O)=O)cc2)n1-c1ccc(F)cc1 [Example 37-II] the N writhes ([4]; 40 mg/kg per os) was 18.2 ± 3.1, the “Weight supported (g) After treatment 30 min” value ([5]; 20 mg/kg per os) was 46.8 ± 3.7 g and the “Weight supported (g) After treatment 60 min” value ([5]; 20 mg/kg per os) was 38.7 ± 3.3 g. For the same molecule, the “Weight supported (g) Before treatment” value ([5]; 20 mg/kg per os) was 32.5 ± 3.4 g, the “Oedema Volume” value ([6]; 20 mg/kg per os) was 2.08 ± 0.07 mL and the “Weight supported (g) After treatment 30 min” value [7] was 51.2 ± 3.9 g. For the same molecule, the “Weight supported (g) After treatment 4 h” value [7] was 50.3 ± 3.8 g, the “Weight supported (g) After treatment 24 h” value [7] was 48.1 ± 3.3 g and the “Weight supported (g) After treatment 36 h” value [7] was 47.4 ± 3.3 g. The “Weight supported (g) Before treatment” value [7] was 33.5 ± 2.6 g.

Cc1c(CCOCCO[N+](=O)[O-])cc(-c2ccc(S(C)(=O)=O)cc2)n1-c1cccc(F)c1 [Example 38, 2-[2-[2-(1-(3-Fluorophenyl)-2-methyl-5-(4-methylsulphonylphenyl)-1H-pyrrol-3-yl]ethoxy]ethyl Nitrate] gave an IC50 (COX-2) of 0.028 µM, an IC50 [1] of 4.79 µM and an Emax [1] of 60 ± 4%. For the same molecule, the N writhes ([4]; 40 mg/kg per os) was 25.3 ± 3.6, the “T ½” value (rat liver homogenate [2]) was 1.01 ± 0.145 h and the “Maximum release (%)” value (rat liver homogenate [3]) was 28 ± 3%.

With Cc1c(CCOCCO[N+](=O)[O-])cc(-c2ccc(S(C)(=O)=O)cc2)n1-c1ccc(F)c(F)c1 [Example 39, 2-[2-[2-(1-(3,4-Difluorophenyl)-2-methyl-5-(4-methylsulphonylphenyl)-1H-pyrrol-3-yl]ethoxy]ethyl Nitrate] the IC50 (COX-2) was 0.92 µM, the Emax [1] was 43 ± 6% and the N writhes ([4]; 20 mg/kg per os) was 26.3 ± 3.4. The “T ½” value (rat liver homogenate [2]) was 1.14 ± 0.142 h and the “Maximum release (%)” value (rat liver homogenate [3]) was 30 ± 1%.

In the case of Cc1c(CCOCCCO[N+](=O)[O-])cc(-c2ccc(S(C)(=O)=O)cc2)n1-c1ccc(F)cc1 [Example 41, 3-[2-[2-(1-(4-Fluorophenyl)-2-methyl-5-(4-methylsulphonylphenyl)-1H-pyrrol-3-yl)]ethoxy]propyl Nitrate], the IC50 (COX-2) is reported as 0.19 µM, the “NO release properties Emax (maximum vasorelaxing effect)” value [1] is reported as “S.E” and the “Weight supported (g) After treatment 30 min” value ([5]; 20 mg/kg per os) is reported as 49.2 ± 3.7 g. The “Weight supported (g) After treatment 60 min” value ([5]; 20 mg/kg per os) was 50.7 ± 3.8 g, the “Weight supported (g) Before treatment” value ([5]; 20 mg/kg per os) was 30.9 ± 2.8 g and the “Oedema Volume” value ([6]; 20 mg/kg per os) was 1.85 ± 0.08 mL. For the same molecule, the “Weight supported after 120 min” value [8] was 45.2±4.1.

In the case of Cc1c(CCOCCCO[N+](=O)[O-])cc(-c2ccc(S(C)(=O)=O)cc2)n1-c1cccc(F)c1 [Example 42, 3-[2-(1-(3-Fluorophenyl)-2-methyl-5-(4-methylsulphonylphenyl)-1H-pyrrol-3-yl)ethoxy]propyl Nitrate], the IC50 (COX-2) is reported as 0.43 µM, the “NO release properties Emax (maximum vasorelaxing effect)” value [1] is reported as “S.E” and the “T ½” value (rat liver homogenate [2]) is reported as 1.41 ± 0.198 h. The “Maximum release (%)” value (rat liver homogenate [3]) was 52 ± 8%.

In the case of COc1ccc2cc([C@H](C)C(=O)OCCCCO[N+](=O)[O-])ccc2c1 [Naproxcinod, naproxcinod, reference compound], the IC50 [1] is reported as 5.25 µM, the Emax [1] is reported as 62 ± 4% and the “Weight supported (g) After treatment 30 min” value ([5]; 10 mg/kg per os) is reported as 47.9 ± 3.5 g. For the same molecule, the “Weight supported (g) After treatment 60 min” value ([5]; 10 mg/kg per os) was 46.2 ± 3.8 g, the “Weight supported (g) Before treatment” value ([5]; 10 mg/kg per os) was 33.5 ± 3.7 g and the “Weight supported (g) After treatment 30 min” value ([5]; 30 mg/kg per os) was 48.2 ± 2.8 g. The “Weight supported (g) After treatment 60 min” value ([5]; 30 mg/kg per os) was 43.9 ± 3.7 g, the “Weight supported (g) Before treatment” value ([5]; 30 mg/kg per os) was 32.7 ± 3.8 g and the “Oedema Volume” value ([6]; 10 mg/kg per os) was 1.95 ± 0.07 mL. For the same molecule, the “Oedema Volume” value ([6]; 30 mg/kg per os) was 1.88 ± 0.07 mL, the “T ½” value (rat liver homogenate [2]) was 0.143 ± 0.0483 h and the “course of nitrite release” value (rat liver homogenate [3]; incubation in rat liver homogenate) was “very rapid, slight release of nitrites”. For the same molecule, the “Maximum release (%)” value (rat liver homogenate [3]) was 20 ± 1 %.
